Results on one compound are retold here after patent US20260365684A1, “PHYTOSPHINGOSINE-3,4-CYCLICPHOSPHATE COMPOUND AND PHARMACEUTICAL COMPOSITION COMPRISING THE SAME” (AXCESO BIOPHARMA CO., LTD., priority 2022, published 2026).

In experiment [1] the test system is Tau protein. The experiment in a line: Expression of Tau in brain of AD-induced animal model by fluorescence microscopy. Conditions: mouse brain, 1 mg/kg i.p. once every 3 days for 2 weeks, FIG. 3. It counts as in vivo. Here is the method:
To determine the therapeutic effect on Alzheimer's Disease (AD), the effects on amyloid beta monomer (monomeric Aβ, mAβ) and Tau protein, which are biomarkers of AD, were analyzed in an AD-induced animal model.
APP/PS/Tau transgenic mice were used as an AD-induced animal model. The compound of formula (1a-1) was administered intraperitoneally once every 3 days at a concentration of 1 mg/kg to 12-week-old transgenic mice for 2 weeks, and the expression of mAβ and Tau proteins in the mouse brain was measured after 1 and 4 weeks. After anesthetizing the mouse, the cervical region was incised with a dissecting tool, and then the occipital region was incised to remove both sides of the skull. The brain was washed with phosphate buffered saline (PBS) and fixed with 4% paraformaldehyde (Sigma, St Louis, MO, USA) for 12 hours at 4 °C. These were cut to a thickness of approximately 10 μm using a vibratome, and hippocampus and cortex sections were collected and placed in 24 wells. PBS was added to the wells containing the fixed tissue sections, and fluorescent nanoparticles (QD565, red fluorescence) conjugated with anti-amyloid antibodies and anti-Tau antibodies (Santa Cruz, USA) were added to each 2 μM, and reacted at 4 °C for 12 hours. The expression of mAβ and Tau was confirmed by fluorescence microscopy.

Experiment [2] deals with SH-SY5Y cell lines. The experiment can be described thus: Proliferation of neurons (SH-SY5Y, Parkinson's disease cell model), EZ-cytox. It counts as cell-based, human. As to conditions: 5 days, FIG. 4. Here is the method: A medium containing DMEM/F12 (Hyclone), 10% FBS (Hyclone), and 1% penicillin-streptomycin (Hyclone) was used, and the medium was replaced every two days after seeding on a T75 plate. Subculture was performed when the cell density was 80-90%.
Then, to determine the neuronal proliferation effect, the subcultured SH-SY5Y cells were seeded in 96 wells at 5×10^3 cells/well. After 1 day, the medium was replaced with a 5% FBS ratio, and the cells were treated with the compound of formula (1a-1) at concentrations serially diluted 2-fold from 500 nM to 15.6 nM and cultured for 5 days. The medium was replaced with 10% FBS containing the drug every other day. The culture medium with 10% FBS was used as a control. After 5 days, the amount of living cells was measured at 450 nm absorbance using EZ-cytox (DoGen) to compare the cell viability.

Experiment [3] has as its system mouse organs. The experiment in a line: In vivo permeability of mouse organs after CLP (Evans blue dye). As to conditions: treated at 6 and 16 hours after CLP, EBD i.v. at 18 hours; FIG. 11C. Here is the method:
(§1) Permeability was measured by an in vitro method using cell culture and in vivo method using Evans blue dye. To increase permeability, LPS was used in the in vitro method and CLP treatment was used in the in vivo method.
To measure permeability by an in vivo method, the compound of formula (1a-1) was treated at 6 and 16 hours after CLP treatment in the same manner as in Experimental Example 7 above, and 200 μl of a 0.5% Evans blue dye (EBD) solution was administered intravenously at 18 hours, circulated for 1 hour, and organs were harvested to visually confirm the presence of dye. The organs were then homogenized in a homogenizer to extract the dye at 55 °C for 48 hours, and permeability was determined by measuring absorbance at 620 nm.

Experiment [4] relates to lungs of mice. The experiment in a line: Acute respiratory distress syndrome induced by CLP: lung histology, lung injury score, wet-to-dry weight ratio. Conditions: treated at 6 and 16 hours after CLP, lungs harvested at 18 hours. It counts as in vivo, mouse. The method, then:
CLP induces pulmonary edema due to increased inflammation and disruption of the vascular barrier, resulting in acute respiratory distress syndrome (ARDS). To determine the effect on ARDS, the compound of formula (1a-1) was treated at 6 and 16 hours after CLP treatment in the same manner as in Experimental Example 7 above, the lungs of mice were harvested at 18 hours for histological analysis, and the wet-to-dry weight ratio of the lungs was obtained. For comparison, mice without CLP treatment served as a control group.
For histologic analysis, the harvested lungs were fixed in 10% paraformaldehyde, infiltrated with paraffin, sectioned into 5 μm-thick tissues, and then de-paraffinized with xylene. Sectioned tissues were mounted on slides, stained with H&E, and observed under an optical microscope. In addition, the lung tissue damage was evaluated by histological score to obtain the lung injury score (LIS) for each group.
To calculate the wet-to-dry weight ratio, lung organs were harvested 18 hours after CLP treatment, and the wet weight was measured immediately after harvesting, and the dry weight was measured after drying in an oven at 60 °C for 48 hours to calculate the wet-to-dry weight ratio. The wet-to-dry weight ratio is used as an indicator of organ edema formation.

Experiment [5] concerns tyrosine hydroxylase (TH). The experiment in a line: Tyrosine hydroxylase expression in differentiated SH-SY5Y dopaminergic neurons by western blot. It counts as cell-based, human. Conditions: FIG. 6. The method, then: (§2) To analyze the effect on the expression of tyrosine hydroxylase (TH) and α-synuclein as neuron-specific proteins, western blot was performed.
(§3) SH-SY5Y cell line was treated with retinoic acid and 12-O-tetradecanoylphorbol-13-acetate (TPA) to induce differentiation into TH-secreting neurons for 6 days.
(§4) Differentiated dopaminergic neurons were lysed in PRO-PREP (Intronbio), a cell lysis solution containing protease inhibitor cocktail (Gendepot), and electrophoresed in 10% SDS polyacrylamide gels at 20 μg/well. Transfer was performed using PVDF (Merck millipore) as a membrane, and tyrosine hydroxylase antibody, «-synuclein antibody (Cell signaling), and β-actin antibody (Santa Cruz) were used for reaction for more than 2 hours. Protein expression was detected by staining with ECL substrate (Biorad) for development and graphed using the image J program.
A general note: A western blot detects proteins with antibodies after separation by electrophoresis.

The subject of experiment [6] is α-synuclein. The experiment can be described thus: α-synuclein expression in differentiated SH-SY5Y dopaminergic neurons by western blot. It counts as cell-based, human. As to conditions: FIG. 6. The method, then:
as §2, §3, §4

Experiment [7] relates to SIRT1. The experiment in a line: SIRT1 expression in mouse vascular cells. It counts as cell-based.
The test system of experiment [8] is MYSEC (murine yolk sac endothelial cell) cell lines. The experiment in a line: In vitro permeability of MYSEC cell line (LPS, trans well, HRP). Conditions: FIG. 11A. It counts as cell-based. The method, then:
as §1
To measure permeability by an in vitro method, MYSEC (murine yolk sac endothelial cell) cell lines were used. MYSEC cell lines were placed in the top chamber of a trans well at 2.5×10^5 cells/well and treated with 300 ng of lipopolysaccharide (LPS) derived from Gram-negative bacteria in the presence of the compound of formula (1a-1) for 24 hours. The medium in the top chamber was replaced with 300 μl of serum-free medium containing 5 μl of streptoavidin-HRP. After 5 minutes, 20 μl of the medium in the lower chamber was taken and the activity of HRP was measured as absorbance at 450 nm.
To determine the mechanism by which the compound of formula (1a-1) improves permeability, the same experiment was performed by knocking down the SIRT1 protein in the MYSEC cell line.

Setting [9] is: differentiated dopaminergic neurons treated with rotenone (RT).
Where [10] appears, read: rotenone-treated differentiated dopaminergic neurons.

`CCCCCCCCCCCCCC[C@H]1OP(=O)(O)O[C@H]1[C@@H](N)CO.Cl` [formula (1a-1), (4S,5R)-4-((S)-1-amino-2-hydroxyethyl)-2-hydroxy-5-tetradecyl-1,3,2-dioxaphosphoran-2-oxide hydrochloride]: the “red fluorescence for Tau” value in experiment [1] (1 week and 4 weeks after) is “negligible red fluorescence for mAβ and Tau”. For the same compound, the “expression of Tau protein” value in experiment [1] is “significantly reduced”. For the same compound, in experiment [2] (15.6 nM to 500 nM), the “proliferation of nerve cells” value is listed as “proliferation of nerve cells increases with increasing concentrations”. For the same compound, in experiment [2], the “concentration of maximum proliferative potency” value was about 100 nM. Moreover, the “amount of Evans blue dye (EBD) in each organ” value in experiment [3] was “returns to normal”. In addition, in experiment [4] (FIG. 9A), the “lung tissue damage (histology, H&E)” value is “the lung tissue is almost restored to normal”. Besides, in experiment [4] (FIG. 9B), the “lung injury score (LIS)” value is given as “almost restores the lung injury score to normal”. Besides, the “wet-to-dry weight ratio of the lung” value in experiment [4] (FIG. 9C) is given as “restores the wet-to-dry weight ratio of the lung to normal”. Moreover, the “expression of TH” value in experiment [5] (setting [9]) is “the expression of TH decreased by rotenone was restored”. For the same compound, the “effectiveness relative to resveratrol (control drug), TH expression” value in experiment [5] (setting [10]) is “more effective than resveratrol”. Also, the “expression of α-synuclein” value in experiment [6] (setting [9]) was “the expression of α-synuclein increased by rotenone was decreased”. Moreover, the “effectiveness relative to resveratrol (control drug), α-synuclein expression” value in experiment [6] (setting [10]) is “more effective than resveratrol”. The “concentration of maximum SIRT1 expression” value in experiment [7] was 100 ng/mL. Moreover, the “permeability, SIRT1 knockdown” value in experiment [8] (MYSEC with knockdown of SIRT1 protein, LPS) is recorded as “does not show the effect”. In addition, the permeability entry in experiment [8] (MYSEC, 300 ng LPS, 24 hours) was “restores the LPS-induced increased permeability to normal”.
